Data: US10959925B2, “Hair cosmetic composition” (KAO CORPORATION, priority 2016, dated 2021)

Assay: physchem

logP: -0.41
SMILES: CC1COC(=O)O1 (stereo not shown) [propylene carbonate]
